In patent US4904682A, “Treating mycoses with triazolylalkanols” (Bayer Aktiengesellschaft, priority 1987, dated 1990):
≈ marks a conversion by molar mass, not a printed value.

Assays:
[1] = test system: Dermatophytes, Hyphomycetes and yeasts; experiment: Antimycotic in vitro activity, serial dilution test (overall statement); type: cell-based; settings: in words
Procedure: (§1) The in vitro tests were carried out in a serial dilution test using bacterial inocula of, on average, 5×10^3 to 10^4 bacteria/ml of substrate. Nutrients used were (a) for Dermatophytes and Hyphomycetes: Sabouraud's test medium (b) for yeasts: meat extract/dextrose broth. The incubation temperature was 28° C. to 37° C., and the incubation period was 24 to 96 hours for yeasts and 96 hours for Dermatophytes and Hyphomycetes.

Candida albicans = experiment: Antimycotic in vitro activity, serial dilution test (MIC); type: cell-based; settings: meat extract/dextrose broth, 28-37° C., 24 to 96 hours, read-out: MIC values in μg/ml of nutrient medium
Procedure: as §1

Torulopsis glabrata = experiment: as above; type: cell-based; settings: Nakaseomyces glabratus, meat extract/dextrose broth, 28-37° C., 24 to 96 hours, read-out: MIC values in μg/ml of nutrient medium
Procedure: as §1

Aspergillus fumigatus = experiment: as above; type: cell-based; settings: Sabouraud's test medium, 28-37° C., 96 hours, read-out: MIC values in μg/ml of nutrient medium
Procedure: as §1

Microsporum canis = experiment: as above; type: cell-based; settings: Sabouraud's test medium, 28-37° C., 96 hours, read-out: MIC values in μg/ml of nutrient medium
Procedure: as §1

Trichophyton mentagr. = experiment: as above; type: cell-based, Trichophyton mentagrophytes; settings: Sabouraud's test medium, 28-37° C., 96 hours, read-out: MIC values in μg/ml of nutrient medium
Procedure: as §1

Candida = experiment: Antimycotic in vivo activity (oral) in mouse candidiasis; design: species or system Mice of the SPF-CF1 type; settings: in words, 25-100 mg/kg
Procedure: Mice of the SPF-CF1 type are intravenously inoculated with 1-2×10^6 logarithmically growing Candida cells, which have been suspended in physical logical saline solution. One hour before and seven hours after infection, the animals are orally treated with 25-100 mg/kg of body weight of the preparation in each case. Result Untreated animals died 3 to 6 days post infection. The survival rate on the 6th day post infection was about 5% in untreated control animals.

Row | Structure (SMILES) | MIC (Candida albicans) [µg/mL] | MIC (Torulopsis glabrata) [µg/mL] | MIC (Aspergillus fumigatus) [µg/mL] | MIC (Microsporum canis) [µg/mL] | MIC (Trichophyton mentagr.) [µg/mL] | antimycotic activity in vitro [1] | action in mouse candidiasis compared with compounds (A) and (B) (Candida)
1 | CC(C)(C#N)C(O)(CCc1ccc(Cl)cc1)Cn1cncn1 (stereo not drawn) [Compound 2] | 16 (≈ 50.2 µM) | 16 (≈ 50.2 µM) | 16 (≈ 50.2 µM) | 16 (≈ 50.2 µM) | < 1 | good antimycotic activity | –
2 | CC(C)(C#N)C(O)(COc1ccc(Cl)cc1)Cn1cncn1 (stereo not drawn) [Compound 8] | – | – | – | – | – | – | better action than the compounds (A) and (B)

The remaining compounds from weak to strong by MIC (Candida albicans), led by results:

Row | MIC (Candida albicans) [µg/mL] | MIC (Torulopsis glabrata) [µg/mL] | MIC (Aspergillus fumigatus) [µg/mL] | MIC (Microsporum canis) [µg/mL] | MIC (Trichophyton mentagr.) [µg/mL] | Structure (SMILES) | antimycotic activity in vitro [1] | action in mouse candidiasis compared with compounds (A) and (B) (Candida)
3 | 8 (≈ 21 µM) | 8 (≈ 21 µM) | 4 (≈ 10.5 µM) | 16 (≈ 42 µM) | < 1 | CC(C)(C#N)C(O)(CSc1ccc(Br)cc1)Cn1cncn1 (stereo not drawn) [Compound 4] | good antimycotic activity | –
4 | 4 (≈ 11.9 µM) | 4 (≈ 11.9 µM) | 8 (≈ 23.7 µM) | – | 8 (≈ 23.7 µM) | CC(C)(C#N)C(O)(CSc1ccc(Cl)cc1)Cn1cncn1 (stereo not drawn) [Compound 5] | good antimycotic activity | –
5 | 2 (≈ 5.52 µM) | 16 (≈ 44.1 µM) | 2 (≈ 5.52 µM) | < 1 | < 1 | CC(C)(C#N)C(O)(COc1ccc(-c2ccccc2)cc1)Cn1cncn1 (stereo not drawn) [Compound 7] | good antimycotic activity | –
